Measurements as given in patent US20210246202A1, “TREATMENTS RELATED TO GH/IGF-1 AXIS INHIBITION” (UNIVERSITY OF SOUTHERN CALIFORNIA, priority 2010, published 2021).

How the values were obtained:
[1] = system: pancreatic carcinoma cells; details: Mol Cancer Ther May 2009 8:1095-1105; cited from earlier work
[2] = Body weight of mice immunized with huGH; type: in vivo, mouse; details: 20 male and 20 female mice immunized with huGH
From the text: FIG. 13A provides a plot of body weight of mice immunized with human Growth Hormone (huGH) (20 male and 20 female) versus time.
This figure provides a plot of body weight of mice immunized with human Growth Hormone (huGH) (20 male and 20 female) versus time.

[3] = system: chemotherapy side effects; assay: Short term immunization with human GH before cyclophosphamide treatment (body weight, complete blood count); type: in vivo, mouse; details: cyclophosphamide i.p., 300 mg/kg, body weight and CBC 7-days after CP
Procedure: FIG. 14A provides plots of the body weight of mice with short term immunization (STI) with human GH (half-filled arrowheads) after cyclophosphamide treatment (cyclophosphamide (CP) i.p., 300 mg/kg, indicated by the solid arrowhead)(Sham means treated with buffer and no chemo);
FIG. 14B provides a histogram of the complete blood count (CBC) 7-days after CP treatment (Data are presented as percentage of pre-chemo value);
FIG. 14A provides plots of the body weight of mice with short term immunization (STI) with human GH (half-filled arrowheads) after cyclophosphamide treatment (cyclophosphamide (CP) i.p., 300 mg/kg, indicated by solid arrowheads). FIG. 14B provides a histogram of the complete blood count (CBC) 7-days after CP treatment (Data are presented as percentage of pre-chemo value).

human GH = human GH (Homo sapiens, UniProt P01241); assay: Slot blot of anti-huGH activity in serum from mice immunized with huGH; type: in vivo, mouse; details: slot blot on immobilized human GH
primary glial cells = assay: 24 hour LDH release from primary glial cells treated with IGFBP1; type: cell-based
Procedure: FIG. 17 provides a plot of the 24 hour lactate dehydrogenase (LDH) release from the treatment of primary glial cells with the IGF-I inhibitor insulin-like growth factor-binding protein 1 (IGFBP1) and with insulin-like growth factor-binding protein 2 (IGFBP2). […] IGFBP1 is a strong IGF-I inhibitor. Other IGFBPs can even increase IGF-I signaling.

Chain of human GH (P01241 27-217): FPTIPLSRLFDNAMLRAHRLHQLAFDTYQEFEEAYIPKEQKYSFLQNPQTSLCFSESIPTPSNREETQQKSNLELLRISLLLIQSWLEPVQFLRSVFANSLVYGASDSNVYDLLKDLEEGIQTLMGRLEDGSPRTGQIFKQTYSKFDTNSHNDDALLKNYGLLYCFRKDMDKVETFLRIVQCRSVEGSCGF

Molecule: AMG 479: a fully human anti-insulin-like growth factor receptor type I monoclonal antibody
- effect on growth and survival of pancreatic carcinoma cells [1]: inhibits the growth and survival of pancreatic carcinoma cells

Molecule: human Growth Hormone [huGH]
- body weight of immunized mice [2]: Lower body weight
- effect against chemotherapy side effects [3]: protective effect against chemotherapy side effects
- immunized mice showing strong anti-huGH activity in serum (human GH): 34 out of 40

B1: insulin-like growth factor-binding protein 1 (protein, UniProt P08833 26-259, looked up)
Insulin-like growth …: APWQCAPCSAEKLALCPPVSASCSEVTRSAGCGCCPMCALPLGAACGVATARCARGLSCRALPGEQQPLHALTRGQGACVQESDASAPHAAEAGSPESPESTEITEEELLDNFHLMAPSEEDHSILWDAISTYDGSKALHVTNIKKWKEPCRIELYRVVESLAKAQETSGEEISKFYLPNCNKNGFYHSRQCETSMDGEAGLCWCVYPWNGKRIPGSPEIRGDPNCQIYFNVQN
- protection against oxidative damage (LDH release) (primary glial cells): protects them against oxidative damage
